Measurements from article PMC10177496, “An Isoxazoloquinone Derivative Inhibits Tumor Growth by Targeting STAT3 and Triggering Its Ubiquitin-Dependent Degradation” (Cancers, 2023).

Target: STAT3 (Homo sapiens, UniProt P40763)
Assay: biotin pull-down (MDA-MB-231), LC/MS identification and STAT3 Western blot
Format: cell-based
Excerpt: biotin pull-down (MDA-MB-231), LC/MS identification and STAT3 Western blot on STAT3 | identified the proteins that bind to biotin–ZSW specifically using LC/MS. We determined that STAT3 was specifically stripped

Chain of STAT3 (P40763 2-770): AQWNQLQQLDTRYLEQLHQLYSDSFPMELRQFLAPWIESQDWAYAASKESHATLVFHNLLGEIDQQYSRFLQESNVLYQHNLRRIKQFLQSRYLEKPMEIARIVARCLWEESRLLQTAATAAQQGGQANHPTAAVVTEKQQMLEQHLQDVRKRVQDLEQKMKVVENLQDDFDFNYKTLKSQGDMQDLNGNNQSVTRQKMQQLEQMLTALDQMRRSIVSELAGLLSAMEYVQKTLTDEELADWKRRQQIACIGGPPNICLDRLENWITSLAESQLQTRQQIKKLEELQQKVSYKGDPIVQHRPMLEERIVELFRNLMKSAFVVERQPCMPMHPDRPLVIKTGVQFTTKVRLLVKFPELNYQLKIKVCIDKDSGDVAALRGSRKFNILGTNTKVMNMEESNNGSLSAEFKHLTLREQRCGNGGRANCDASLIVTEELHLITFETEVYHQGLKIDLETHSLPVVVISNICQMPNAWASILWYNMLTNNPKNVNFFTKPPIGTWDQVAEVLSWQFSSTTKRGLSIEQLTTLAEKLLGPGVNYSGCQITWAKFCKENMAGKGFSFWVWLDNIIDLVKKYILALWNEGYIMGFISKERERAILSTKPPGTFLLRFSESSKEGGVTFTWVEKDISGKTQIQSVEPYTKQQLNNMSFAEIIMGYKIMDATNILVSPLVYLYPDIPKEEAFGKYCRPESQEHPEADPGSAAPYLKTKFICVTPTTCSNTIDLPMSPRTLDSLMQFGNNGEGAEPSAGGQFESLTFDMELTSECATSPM

## COc1cc(-c2noc3c2C(=O)c2cccnc2C3=O)cc(OC)c1OCCCOC(=O)CCCCC1SCC2NC(=O)NC21 (stereo not shown) [biotin–ZSW]
  biotin pull-down (MDA-MB-231), LC/MS identification and STAT3 Western blot: identified the proteins that bind to biotin–ZSW specifically using LC/MS. We determined that STAT3 was specifically stripped
